Source: patent publication US20150175585A1, “FUSED QUINONIC COMPOUNDS” (CENTRO ATLANTICO DEL MEDICAMENTO S.A (CEAMED, S.A.), priority 2012, published 2015)

System: JAK2
Assay: JAK2 phosphorylation western blot assay
Format: cell-based, human
Settings: 10 microM, HEL or K562 cells (table does not say which)

N#Cc1ccc(C2C3=C(CCCC3=O)OC3=C2C(=O)c2ccccc2C3=O)cc1 (stereo not shown) [Compound 4, 4-(1,6,11-trioxo-2,3,4,6,11,12-hexahydro-1H-benzo[b]xanthen-12-yl)benzonitrile]
Activity (inhibition of JAK2 phosphorylation): ++ (++represents an inhibition at 10 microM > 50%)
